Where a name gives a salt, the structure may show the parent alone. Numbered stars: 1 amine (or outer) side, 2 acyl side, 3 side chain; on linkers, the order of the positions; unused ones are H or OH. Square brackets hold non-standard residues; d marks the D form. Ends that are not written are not given here. Peptide text beside a SMILES is read from it. Pro(trans-4-F) = O=C(O)[C@@H]1C[C@@H](F)CN1; X2 = C[C@@H]1CC[C@@H](C(=O)[*:2])N1[*:1]; Pro(4,4-Me2) = CC1(C)CN[C@H](C(=O)O)C1; d(cisHyp) = O=C(O)[C@H]1C[C@@H](O)CN1; Hyp = O=C(O)[C@@H]1C[C@@H](O)CN1; dHyp = O=C(O)[C@H]1C[C@H](O)CN1
Key:
[1] = test system: rats with dry eye syndrome (extraorbital lacrimal gland excision, ELGE); experiment: Amount of tear secretion (Schirmer test, cobalt chloride paper) in ELGE rats with dry eye syndrome; type: in vivo, rat; settings: for Tear Volumes, Day 7 / Tear Volumes, Day 14: ELGE rats, 3 mg/ml, 5 μl/eye twice daily; for Tear Volumes, Day 7: day 7 of administration; for Tear Volumes, Day 14: day 14 of administration
Outline: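 Dry eye induced in male Sprague-Dawley rats by extraorbital lacrimal gland excision; sham-operated controls. From 7 days post-surgery, 3 mg/ml test compounds in saline given topically at 5 μl/eye twice daily for 14 days. Tear secretion measured on days 7 and 14 as wetted length of cobalt chloride paper held 60 s in the lateral canthus.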

[2] = test system: cornea of rats with dry eye syndrome (ELGE); experiment: Corneal permeability of fluorescent dye (corneal damage) in ELGE rats with dry eye syndrome; type: in vivo, rat; settings: 5 μl/eye twice daily, day 14
Outline: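 Dry eye induced in male Sprague-Dawley rats by extraorbital lacrimal gland excision; from day 7, 3 mg/ml compound in saline given at 5 μl/eye twice daily. After 14 doses, rats anaesthetized (Zolethyl 25 mg/kg ip), 1% fluorescein applied 1 h, and corneal staining read 12-24 h later by slit-lamp under blue light.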

[3] = Stability in aqueous solution under long-term storage conditions (related substances); type: physicochemical; settings: 25° C., 75% RH
Outline: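 Test substances dissolved in water at 1 mg/ml, sealed in glass vials and held at 25° C./75% RH. Related substances measured at 1, 2, 4, 8 and 12 weeks.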

[4] = test system: human primary corneal epithelial cells; experiment: Cell growth rate of human primary corneal epithelial cells (CellTiter-Glo); type: cell-based; settings: 48 hours and 72 hours
Procedure: In order to confirm whether the YDE derivatives could recover corneal damage, the cellular growth rate of human primary corneal epithelial cells was checked.
Specifically, primary corneal epithelial cells (ATCC, ATCC PCS-700-010) were seeded on a 96-well culture plate (Perkin Elmer, 6005680) containing the Corneal Epithelial Cell Basal Medium (ATCC, ATCC PCS-700-030) in the Corneal Epithelial Cell Growth Kit (ATCC, ATCC PCS-700-040) in an amount of 5×10^3 cells per well, which was then cultured for 24 hours under the conditions of 37° C. and 5% CO2.
YDE-001 to YDE-075 were each dissolved in 100% DMSO (Sigma, D2660) to a concentration of 10 mM, which was then diluted with 100% DMSO to a concentration of the compound of 6, 1.9, 0.6, 0.2, 0.06, 0.02, 0.006, and 0.002 mM. 20 μl of the diluted YDE derivative was added to a 96-well microplate (Greiner Bio-One, 651201) containing 380 μl of the Corneal Epithelial Cell Basal Medium such that the concentration of DMSO was diluted to 5%.
After 24 hours, 20 μl of each of the YDE derivatives diluted in the 96-well microplate was added to the 96-well culture plate containing the cells. As a control group, hEGF (Sigma, E9644) was treated at the same concentration as the YDE derivatives. The cells treated with the YDE-derivatives or hEGF were cultured for 48 hours and 72 hours under the conditions of 37° C. and 5% CO2 (FIGS. 18 to 25).
The cultured cells were treated with the CellTiter-Glo luminescent reagent (Promega, G7573) according to the manufacturer's instructions and reacted for 30 minutes at room temperature. Thereafter, the fluorescent signal (or luminescence signal) was checked using an Envision 2014 Multi-label plate reader. The measured values were normalized using a vehicle control (100% proliferation cell).

[5] = Table 4, study of YDE-001 to YDE-028
[6] = Table 5, study of YDE-029 to YDE-043
[7] = Table 7, study of YDE-029 to YDE-043, 3 mg/ml

Compound | Amount of related substances (after 12 weeks) [3] | Tear Volumes, Day 7 [1, 5] | Tear Volumes, Day 14 [1, 5] | Permeability of fluorescent dye ([2]; Table 6, study of YDE-001 to YDE-028, 3 mg/ml) | Cell proliferation rate (in words) [4] | Tear Volumes, Day 7 [1, 6] | Tear Volumes, Day 14 [1, 6] | Permeability of fluorescent dye [2, 7] | Change in amount of tear secretion as compared with the ELGE control group ([1]; study of YDE-029 to YDE-043, 3% solution as printed, after administration for 14 days)
CC(C)C[C@H](NC(=O)CNC(=O)[C@H](CC(C)C)NC(=O)[C@H](CCC(N)=O)NC(=O)CNC(=O)[C@@H]1CC(C)(C)CN1)C(=O)N[C@@H](C)C(=O)NCC(=O)N1CCC[C@H]1C(=O)N[C@@H](CCCCN)C(=O)O [YDE-040] (H-[Pro(4,4-Me2)]GQLGLAGPK-OH) | 3.58% |  |  |  |  | 5.77 ± 1.05 mm^3 | 8.63 ± 1.53 mm^3 | 18.33 ± 9.41% | 
CC(C)C[C@H](NC(=O)[C@H](CCC(N)=O)NC(=O)CNC(=O)[C@@H]1C[C@@H](O)CN1)C(=O)NCC(=O)O [YDE-043] (H-[Hyp]GQLG-OH) | 3.43% |  |  |  |  | 5.90 ± 1.06 mm^3 | 8.16 ± 1.42 mm^3 | 19.04 ± 7.36% | 
CC(C)C[C@H](NC(=O)CNC(=O)[C@H](CC(C)C)NC(=O)[C@H](CCC(N)=O)NC(=O)CNC(=O)[C@@H]1CC[C@@H](C)N1)C(=O)N[C@@H](C)C(=O)NCC(=O)N1CCC[C@H]1C(=O)N[C@@H](CCCCN)C(=O)O [YDE-045] (H-[X2]GQLGLAGPK-OH) |  |  |  |  | high cell proliferation rate |  |  |  | 
CC(C)C[C@H](NC(=O)CNC(=O)[C@H](CC(C)C)NC(=O)[C@H](CCC(N)=O)NC(=O)CNC(=O)[C@H]1C[C@H](O)CN1)C(=O)N[C@@H](C)C(=O)NCC(=O)N1CCC[C@H]1C(=O)N[C@@H](CCCCN)C(=O)O [YDE-057] (H-[dHyp]GQLGLAGPK-OH) |  |  |  |  | high cell proliferation rate |  |  |  | 
CC(C)C[C@@H](NC(=O)CNC(=O)[C@@H](CC(C)C)NC(=O)[C@@H](CCC(N)=O)NC(=O)CNC(=O)[C@H]1C[C@@H](O)CN1)C(=O)N[C@H](C)C(=O)NCC(=O)N1CCC[C@@H]1C(=O)N[C@H](CCCCN)C(=O)O [YDE-060] (H-[d(cisHyp)]G[dQ][dL]G[dL][dA]G[dP][dK]-OH) |  |  |  |  | high cell proliferation rate |  |  |  | 

More lines, main results first:

Amount of related substances (after 12 weeks) [3] | Compound | Tear Volumes, Day 7 [1, 5] | Tear Volumes, Day 14 [1, 5] | Permeability of fluorescent dye ([2]; Table 6, study of YDE-001 to YDE-028, 3 mg/ml) | Cell proliferation rate (in words) [4] | Tear Volumes, Day 7 [1, 6] | Tear Volumes, Day 14 [1, 6] | Permeability of fluorescent dye [2, 7] | Change in amount of tear secretion as compared with the ELGE control group ([1]; study of YDE-029 to YDE-043, 3% solution as printed, after administration for 14 days)
3.83% | CC(C)C[C@H](NC(=O)CNC(=O)[C@H](CC(C)C)NC(=O)[C@H](CCC(N)=O)NC(=O)CNC(=O)[C@@H]1C[C@@H](O)CN1)C(=O)N[C@@H](C)C(=O)NCC(=O)N1CCC[C@H]1C(=O)N[C@@H](CCCCN)C(=O)O [YDE-011, H-Hyp-Gly-Gln-Leu-Gly-Leu-Ala-Gly-Pro-Lys-OH AcOH salt] (H-[Hyp]GQLGLAGPK-OH) | 4.22 ± 1.45 mm^3 | 6.16 ± 2.16 mm^3 | 18.11 ± 11.61% | high cell proliferation rate |  |  |  | 
2.19% | CC(C)C[C@H](NC(=O)CNC(=O)[C@H](CC(C)C)NC(=O)[C@H](CCC(N)=O)NC(=O)CNC(=O)[C@@H]1C[C@@H](F)CN1)C(=O)N[C@@H](C)C(=O)NCC(=O)N1CCC[C@H]1C(=O)N[C@@H](CCCCN)C(=O)O [YDE-039] (H-[Pro(trans-4-F)]GQLGLAGPK-OH) |  |  |  |  | 6.04 ± 1.01 mm^3 | 6.44 ± 1.96 mm^3 | 29.94 ± 11.40% | 
3.04% | CC(C)C[C@H](NC(=O)CNC(=O)[C@H](CC(C)C)NC(=O)[C@H](CCC(N)=O)NC(=O)CNC(=O)[C@@H]1C[C@@H](O)CN1)C(=O)N[C@@H](C)C(=O)O [YDE-041] (H-[Hyp]GQLGLA-OH) |  |  |  |  | 5.01 ± 1.26 mm^3 | 6.25 ± 2.15 mm^3 | 46.38 ± 26.65% | did not show any significant changes
3.98% | CC(C)C[C@H](NC(=O)CNC(=O)[C@H](CC(C)C)NC(=O)[C@H](CCC(N)=O)NC(=O)CNC(=O)[C@@H]1C[C@@H](O)CN1)C(=O)O [YDE-042] (H-[Hyp]GQLGL-OH) |  |  |  |  | 6.30 ± 1.08 mm^3 | 7.97 ± 1.48 mm^3 | 20.72 ± 11.37% | 
2.88% | PGQLGLAGPK [YDE-037] |  |  |  |  | 4.98 ± 0.66 mm^3 | 5.80 ± 0.90 mm^3 | 36.30 ± 9.75% | 

From US11613558B2, “Peptides and pharmaceutical compositions for treating eye diseases” (Yuyu Pharma, Inc., priority 2018, dated 2023)
